Source: PubChem BioAssay (NCI)
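Briefly, cells in 96-well plates were exposed to five compound concentrations for 48 h, and endpoints were estimated by linear interpolation. The concentration for full growth arrest is given as TGI.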

Key:
Experiment in all cases: NCI anticancer screen, dose series, 48 h
[1] = system: 786-0 renal
[2] = system: A498 renal
[3] = system: A549 NSCLC
[4] = system: ACHN renal
[5] = system: BT-549 breast
[6] = system: CAKI-1 renal
[7] = system: CCRF-CEM leukemia
[8] = system: COLO 205 colon
[9] = system: DU-145 prostate
[10] = system: EKVX NSCLC
[11] = system: HCC-2998 colon
[12] = system: HCT-116 colon
[13] = system: HCT-15 colon
[14] = system: HL-60(TB) leukemia
[15] = system: HOP-62 NSCLC
[16] = system: HS 578T breast
[17] = system: HT29 colon
[18] = system: IGROV1 ovarian
[19] = system: K-562 leukemia
[20] = system: KM12 colon
[21] = system: LOX IMVI melanoma
[22] = system: M14 melanoma
[23] = system: MALME-3M melanoma
[24] = system: MCF7 breast
[25] = system: MDA-MB-231 breast
[26] = system: MDA-MB-435
[27] = system: NCI-H226 lung
[28] = system: NCI-H23 lung
[29] = system: NCI-H460 lung
[30] = system: NCI-H522 lung
[31] = system: NCI/ADR-RES ovarian
[32] = system: OVCAR-3 ovarian
[33] = system: OVCAR-4 ovarian
[34] = system: OVCAR-5 ovarian
[35] = system: OVCAR-8 ovarian
[36] = system: PC-3 prostate
[37] = system: RPMI-8226 leukemia
[38] = system: RXF 393 renal
[39] = system: SF-268 CNS
[40] = system: SF-295 CNS
[41] = system: SF-539 CNS
[42] = system: SK-MEL-2 melanoma
[43] = system: SK-MEL-28 melanoma
[44] = system: SK-MEL-5 melanoma
[45] = system: SK-OV-3 ovarian
[46] = system: SN12C renal
[47] = system: SNB-19 CNS
[48] = system: SNB-75 CNS
[49] = system: SR leukemia
[50] = system: SW-620 colon
[51] = system: T-47D breast
[52] = system: TK-10 renal
[53] = system: U251 CNS
[54] = system: UACC-257 melanoma
[55] = system: UACC-62 melanoma
[56] = system: UO-31 renal

Measured: TGI

COC(=O)C1=C(OC(=O)/C(=C/c2ccccc2)c2ccccc2)C(C(=O)OC)[C@@]2(O)[C@@H](C(=O)OC)[C@H](C)C[C@@H]1[C@@H]2C(=O)OC (stereo partly specified)
> 100 µM: [1] | [2] | [3] | [4] | [5] | [6] | [7] | [8] | [9] | [10] | [11] | [12] | [13] | [14] | [15] | [16] | [17] | [18] | [19] | [20] | [21] | [22] | [23] | [24] | [25] | [26] | [27] | [28] | [29] | [30] | [31] | [32] | [33] | [34] | [35] | [36] | [37] | [38] | [39] | [40] | [41] | [42] | [43] | [44] | [45] | [46] | [47] | [48] | [49] | [50] | [51] | [52] | [53] | [54] | [55] | [56]
